Source: ChEMBL document CHEMBL1201862, “PubChem BioAssay data set” (2004)
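Dose response: 5 concentrations. Exposure: 48 h. Format: 96-well plates. Endpoint: linear interpolation; highest concentration if not reached. GI50: concentration for 50% inhibition of growth.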 Active and inactive are the calls of the source. Rule as the data show it: active = GI50 up to about 1.1 µM and inactive = higher.

Key:
Assay in all cases: NCI anticancer screen, dose series, 48 h
[1] = test system: HCT-116
[2] = test system: SK-MEL-5
[3] = test system: SF-268
[4] = test system: RPMI-8226
[5] = test system: NCI-H460
[6] = test system: IGROV-1
[7] = test system: EKVX
[8] = test system: OVCAR-5
[9] = test system: 786-0
[10] = test system: NCI-H23
[11] = test system: NCI-H522
[12] = test system: CCRF-CEM
[13] = test system: SW-620
[14] = test system: HOP-92
[15] = test system: SF-295
[16] = test system: UACC-257
[17] = test system: SNB-75

Measured: GI50

COc1ccc2c(c1)[n+]([O-])c(/C(C)=N/NC(=O)c1ccccc1O)c(C)[n+]2[O-]
inactive: [1] > 100 µM | [2] > 100 µM | [3] > 100 µM | [4] > 100 µM | [5] > 100 µM | [6] > 100 µM | [7] > 100 µM | [8] > 100 µM | [9] > 100 µM | [10] > 100 µM | [11] > 100 µM | [12] > 100 µM | [13] > 100 µM | [14] > 100 µM | [15] > 100 µM | [16] > 100 µM

O=C(c1ccccc1)c1nc2ccc(Cl)cc2c2c1Cc1ccccc1-2
inactive: [1] > 100 µM | [2] > 100 µM | [3] > 100 µM | [4] > 100 µM | [6] > 100 µM | [17] 46.5 µM | [7] > 100 µM | [8] > 100 µM | [9] > 100 µM | [10] > 100 µM | [11] > 100 µM | [13] > 100 µM | [15] > 100 µM | [16] > 100 µM

C=C1C(=O)OC2C/C(C)=C/CC/C(C)=C/CCC3(COC(C)=O)OC3CC12 (stereo unspecified)
inactive: [1] 1.84 µM | [2] 14.9 µM | [3] 10 µM | [4] 2.53 µM | [5] 12.7 µM | [6] 16.7 µM | [17] 11.6 µM | [7] 19.6 µM | [8] 16.5 µM | [9] 5.65 µM | [10] 11.8 µM | [11] 1.51 µM | [12] 2.7 µM | [13] 2.04 µM | [15] 15.3 µM | [16] 15.4 µM

C#CC(C)(C)Oc1cc(O)c2c(=O)c3ccccc3n(C)c2c1
inactive: [1] > 100 µM | [2] > 100 µM | [3] > 100 µM | [5] 24.5 µM | [6] > 100 µM | [17] 40.4 µM | [7] > 100 µM | [8] > 100 µM | [9] 53.3 µM | [10] > 100 µM | [11] > 100 µM | [12] 45.2 µM | [14] > 100 µM | [15] > 100 µM | [16] > 100 µM

Cc1ccc(S(=O)(=O)NC(=O)C#CCOC2CCCCO2)cc1 (stereo unspecified)
inactive: [1] > 100 µM | [2] > 100 µM | [4] > 100 µM | [5] > 100 µM | [17] > 100 µM | [7] > 100 µM | [8] > 100 µM | [9] > 100 µM | [10] > 100 µM | [12] > 100 µM | [13] > 100 µM | [14] > 100 µM | [15] > 100 µM | [16] > 100 µM

COc1ccc2nc3cc(Cl)ccc3c(NCCC[N+](C)(C)CCCCCCCCCCCCCCCC[N+](C)(C)CCCNc3c4ccc(Cl)cc4nc4ccc(OC)cc34)c2c1
inactive: [1] 1.75 µM | [2] 2 µM | [3] 2.11 µM | [4] 1.47 µM | [5] 1.68 µM | [6] 2.7 µM | [17] 2.83 µM | [7] 3.21 µM | [8] 2.92 µM | [9] 3.63 µM | [10] 2 µM | [11] 2.81 µM | [12] 1.66 µM | [13] 1.96 µM | [15] 6.03 µM | [16] 2.43 µM

O=C(Nc1ccccc1C(=O)NC(=O)c1ccccc1NC(=O)c1ccccc1)c1ccccc1
inactive: [1] 3.45 µM | [2] 2.9 µM | [3] 6.85 µM | [4] 1.46 µM | [5] 7.71 µM | [6] 1.86 µM | [17] 2.83 µM | [7] 8.71 µM | [8] 3.6 µM | [9] 12 µM | [10] 4.57 µM | [12] 3.91 µM | [13] 4.84 µM | [14] 1.99 µM | [15] 10.8 µM | [16] 1.86 µM

COc1ccccc1NC(=O)NS(=O)(=O)c1ccccc1
inactive: [1] > 100 µM | [2] > 100 µM | [3] > 100 µM | [5] > 100 µM | [17] > 100 µM | [7] 88.7 µM | [8] > 100 µM | [9] > 100 µM | [10] > 100 µM | [11] 63.7 µM | [13] > 100 µM | [14] > 100 µM | [15] > 100 µM | [16] > 100 µM

CC(C)N(C(=O)C12C3C4C1C1C2C3C41C(=O)C(C)(C)C)C(C)C (stereo unspecified)
inactive: [1] 92.9 µM | [2] 38.8 µM | [3] > 100 µM | [4] 31.9 µM | [6] > 100 µM | [17] > 100 µM | [7] > 100 µM | [8] > 100 µM | [9] > 100 µM | [10] > 100 µM | [11] 14 µM | [12] 16.1 µM | [13] 47.4 µM | [15] > 100 µM | [16] 95.3 µM

CC1=C(C(=O)NCc2ccccc2)C(/C=C/c2ccccc2)C(C(=O)NCc2ccccc2)=C(C)N1
inactive: [1] > 100 µM | [2] > 100 µM | [3] > 100 µM | [4] > 100 µM | [5] > 100 µM | [6] > 100 µM | [17] 85.9 µM | [7] > 100 µM | [8] > 100 µM | [9] > 100 µM | [10] > 100 µM | [12] > 100 µM | [13] > 100 µM | [14] > 100 µM | [15] > 100 µM | [16] > 100 µM

CCCCOC(=O)NC(=O)c1cn(CCCOC(=O)CCCCCCCCC(=O)OCCCn2cc(C(=O)NC(=O)OCCCC)c(=O)[nH]c2=O)c(=O)[nH]c1=O
inactive: [1] > 100 µM | [2] > 100 µM | [3] > 100 µM | [4] > 100 µM | [5] > 100 µM | [6] > 100 µM | [7] > 100 µM | [8] > 100 µM | [9] > 100 µM | [10] > 100 µM | [12] > 100 µM | [13] > 100 µM | [14] > 100 µM | [15] > 100 µM | [16] > 100 µM

O=C1C2C3C=C4c5ccccc5N(c5ccccc5)C4([C@@H]2C(=O)N1c1ccc(F)cc1)[C@H]1C(=O)N(c2ccc(F)cc2)C(=O)[C@@H]31 (stereo partly specified)
inactive: [3] 37.2 µM | [4] > 100 µM | [17] > 100 µM | [7] > 100 µM | [8] > 100 µM | [9] > 100 µM | [10] > 100 µM | [11] > 100 µM | [12] > 100 µM | [13] > 100 µM | [14] > 100 µM | [15] > 100 µM | [16] > 100 µM

C=C1CC2OC(=O)C(=C)C2C(O)C2C(=C)CCC12 (stereo unspecified)
inactive: [1] 3.62 µM | [2] 12.2 µM | [3] 16.7 µM | [4] 2.81 µM | [5] 14.7 µM | [6] 17.7 µM | [17] 9.86 µM | [7] 6.98 µM | [8] 12.3 µM | [9] 13.4 µM | [10] 12.6 µM | [12] 2.24 µM | [13] 3.82 µM | [14] 2.06 µM | [15] 10.9 µM | [16] 4.2 µM
